# Measurements from PMC4750079, “Tackling amyloidogenesis in Alzheimer’s disease with A2V variants of Amyloid-β” (Scientific Reports, 2016).
# Where a SMILES comes first, the peptide text is derived from it. [ ]: non-standard residue; d: D form.
# B1: TAT: HIV-1 Tat of the cited studies (protein, UniProt P04608 1-86, looked up)
# Protein Tat: MEPVDPRLEPWKHPGSQPKTACTNCYCKKCCFHCQVCFITKALGISYGRKKRRQRRRAHQNSQTHQASLSKQPTSQPRGDPTGPKE
# Key:
# Aβ1-42WT = molecular target: T1, Aβ1-42WT (Homo sapiens, UniProt P05067); assay: Atomic force microscopy of Aβ1-42WT oligomerization; format: biochemical; conditions: Aβ1-42WT alone, 100 μM, phosphate buffer 50 mM pH 7.4, 4 °C, 24 h, AFM
# T1 construct: Aβ1-42WT oligomers were formed following incubation of Aβ1-42WT at a final concentration of 100 μM; made in house; host or cells: chemical synthesis (solid-phase Fmoc), no expression host
# T1 sequence (P05067 672-713 limits assumed): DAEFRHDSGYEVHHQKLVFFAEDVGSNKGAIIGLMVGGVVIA
# Protocol: In polarized-light and EM studies, both peptides were used at 0.125 mM, molar ratio = 1:1 or 1:4 respectively, with 20 days incubation. […] E,F: Representative Tapping mode of AFM images as determined by amplitude error data of Aβ1-42WT oligomers. Aβ1-42WT peptide 100 μM in phosphate buffer 50 mM, pH 7.4 was incubated at 4 °C for 24 h alone (E) (Z range: -10/ + 10 mV) or in presence of Aβ1-6A2VTAT(D) (F) (Z range: -10/ + 25 mV). The molar ratio of Aβ1-42WT to Aβ1-6A2VTAT(D) was 1:4. Scale bar: 1 μm, inset: 200 nm. (G,H): height plot profiles obtained along different lines traced on the topographic AFM images.
# Aβ1-42WT oligomers were formed following incubation of Aβ1-42WT at a final concentration of 100 μM in phosphate buffer 50 mM, pH 7.4 at 4 °C for 24 h, alone or in presence of Aβ1-6A2VTAT(D), at 1:4 molar ratio. Sample solutions were diluted to a final concentration of 10 μM of Aβ1-42WT with phosphate buffer and 50 μl of each solution was immediately added onto freshly cleaved mica at room temperature for 2 minutes. Samples were washed and dried under gentle nitrogen flow. AFM analyses were carried out on a Multimode AFM with a Nanoscope V system (Veeco/Digital Instruments). AFM images were analysed using the Scanning Probe Image Processor data analysis package. All the topographic patterns and SPIP characterization were verified via additional measurements on a minimum of five different, well separated areas.
# SH-SY5Y cells = assay: Toxicity of peptides on differentiated SH-SY5Y cells (MTT test); format: cell-based, human; conditions: 24 h; for toxicity for living cells: up to 20 μM, mean of three independent assays
# Protocol: Figure 2 Analysis of the effects of Aβ1-6WT(D), Aβ1-6A2V(D) and Aβ1-6A2VTAT(D) on neurotoxicity in cell models. SH-SY5Y cells were differentiated with 10 μM retinoic acid. […] Comparison of cell viability was performed by Student t-test.
# Toxicity studies with Aβ1-6WT(D), Aβ1-6A2V(D) or Aβ1-6A2VTAT(D) and the short peptides’ ability to inhibit the toxicity induced by Aβ1-42WT in SH-SY5Y cell cultures were analyzed following previously described protocols. Each experiment was performed in triplicate; the data provided were obtained as the mean of three independent assays.
# amyloid plaques = assay: Binding of biotinylated peptides to amyloid in CRND8 mouse brain sections; conditions: for staining of amyloid plaques in transgenic mouse brain: CRND8 transgenic brain sections, avidin-biotin complex / DAB
# Protocol: It was tested on brain sections of transgenic and control mice of CRND8 strain[44]. To unequivocally identify the fragment(s) of the peptide responsible for binding to plaques we used three separate segments: Biot-Aβ1-6WT(D), Biot-Aβ1-6A2V(D) and Biot-TAT(D). Seven-micrometre thick brain sections fixed in Carnoy and embedded in paraffin were used for staining.
# [1] = Crossing of blood brain barrier and cell membranes (data not shown); conditions: peptide alone
# APP = conditions: enhanced β-secretase cleavage of APP, increased C99; cited from earlier work
# From the text: This is consistent with our findings, indicating a shift in APP processing towards the amyloidogenic processing i ...
molecule,measurement,setting,value
"H-Asp-ALA/VAL-Glu-Phe-Arg-His-Asp-Ser-Gly-Tyr-Glu-Val-His-His-Gln-Lys-Val-Phe-Phe-Ala-Glu-Asp-Val-Gly-Ala-Ile-Ile-Gly-Leu-Met-Val-Gly-Gly-Val-Val—OH [Aβ1-42WT, synthetic wild-type full-length Amyloid-β 1-42, reference compound]",diameter of small oligomers (~70%),Aβ1-42WT,6-20 nm
same,reduction of cell viability,SH-SY5Y cells,35%
C[C@@H](NC(=O)[C@H](N)CC(=O)O)C(=O)N[C@H](CCC(=O)O)C(=O)N[C@H](Cc1ccccc1)C(=O)N[C@H](CCCNC(=N)N)C(=O)N[C@H](Cc1c[nH]cn1)C(=O)O [Aβ1-6WT(D)] (H-[dD][dA][dE][dF][dR][dH]-OH),toxicity for living cells,SH-SY5Y cells,neither is toxic for living cells even at high concentrations
"H-Asp-ALA/VAL-Glu-Phe-Arg-His-Gly-Gly-Gly-Gly-Gly-Arg-Lys-Lys-Arg-Arg-Gln-Arg-Arg-Arg [Biot-Aβ1-6WTTAT(D), Aβ1-6WTTAT(D) containing a biotinylated residue at the C-terminus]",staining of amyloid plaques in transgenic mouse brain,amyloid plaques,able to bind and therefore stain the plaques
same,staining in brain slices of non-transgenic control mice,"amyloid plaques; control animals devoid of amyloid plaques, data not shown",unable to produce any staining
"Gly-Arg-Lys-Lys-Arg-Arg-Gln-Arg-Arg-Arg [Biot-TAT(D), biotinylated form of TAT(D), reference compound]",staining of amyloid plaques in transgenic mouse brain,amyloid plaques,strongly stained amyloid deposits
CC(C)[C@@H](NC(=O)[C@H](N)CC(=O)O)C(=O)N[C@H](CCC(=O)O)C(=O)N[C@H](Cc1ccccc1)C(=O)N[C@H](CCCNC(=N)N)C(=O)N[C@H](Cc1c[nH]cn1)C(=O)O [Aβ1-6A2V(D)] (H-[dD][dV][dE][dF][dR][dH]-OH),crossing of blood brain barrier and cell membranes,[1],does not efficiently cross either the blood brain barrier (BBB) or cell membranes
same,toxicity for living cells,SH-SY5Y cells,neither is toxic for living cells even at high concentrations
"H-Asp-ALA/VAL-Glu-Phe-Arg-His-OH [Biot-Aβ1-6A2V(D), Aβ1-6A2V(D) containing a biotinylated residue at the C-terminus]",staining of amyloid plaques in transgenic mouse brain,amyloid plaques,no immunostaining of amyloid was detected
B1,fold higher levels of Aβ42,APP,5.5 fold
